The source made the active and inactive calls. No rule for the calls is given here.
Test system: L. donovani-infected THP-1 macrophages, intracellular amastigote imaging
Assay: antileishmanial activity in infected THP-1 macrophages – imaging, THP-1 host macrophages, host toxicity (AID 1159564)
[1] = measured here: THP-1 host cell toxicity
[2] = measured here: amastigotes per macrophage

## CCCN(Cc1ccc(OC)c(OC)c1)Cc1cc(=O)c2c(C)cc(C)cc2[nH]1
  IC50: 25 µM
[1]
  IC50: 5 µM
[2]
  IC50: 20 µM

## CC(C)CC(=O)Nc1cc(C2CC2)nn1-c1nc2c(c(=O)[nH]1)CCCC2
  IC50: 7.9 µM
[1]
  IC50: 5 µM
[2]
  IC50: 5 µM

## CCc1nn(-c2ncc(F)c(NC(C)C)n2)c(N)c1C1CCCCC1
  IC50: 3.2 µM
[1]
  IC50: 16 µM
[2]
  IC50: 1.6 µM

## COc1ccc(Cl)cc1CC(=O)Nc1n[nH]c(-c2ccccn2)n1
  IC50: 6.3 µM
[1]
  IC50: > 50 µM
[2]
  IC50: 5 µM

## O=C(Nc1nc2cc(Cl)ccc2o1)c1cccc(Cl)c1
  IC50: > 50 µM (inactive)
[1]
  IC50: 6.3 µM
[2]
  IC50: > 50 µM

## Cc1[nH]nc(C(F)(F)F)c1NC(=O)CCn1cc(Cl)c([N+](=O)[O-])n1
  IC50: > 50 µM (inactive)
[1]
  IC50: 16 µM
[2]
  IC50: > 50 µM

## NS(=O)(=O)c1ccc(Nc2ncc3cccc(OC4CCNCC4)c3n2)cc1
  IC50: 20 µM
[1]
  IC50: 1 µM
[2]
  IC50: 16 µM

## CCn1c(-c2nonc2N)nc2c([C@@H](C)O)ncc(O[C@H](CN)c3ccccc3)c21
  IC50: 5 µM
[1]
  IC50: 3.2 µM
[2]
  IC50: 3.2 µM

## COc1ccc(NS(=O)(=O)c2ccc(S(=O)(=O)N(C)C3CCCCC3)cc2)c2ncccc12
  IC50: 0.32 µM
[1]
  IC50: > 50 µM
[2]
  IC50: 0.16 µM

## O=C(CN1CCC2(O)CCCCC2C1c1ccc2c(c1)OCO2)Nc1ccc(Cl)cc1Cl (configuration not stated)
  IC50: 3.2 µM
[1]
  IC50: > 50 µM
[2]
  IC50: 1.3 µM

## COc1cccc(CN(C)Cc2nc(N)c3c(C)c(C)sc3n2)c1
  IC50: 5 µM
[1]
  IC50: 32 µM
[2]
  IC50: 3.2 µM

## COc1ccc(C(=O)NC2CCN(CCn3c(=O)ccc4ncc(F)cc43)CC2)cc1Cl
  IC50: > 50 µM (inactive)
[1]
  IC50: > 50 µM
[2]
  IC50: 16 µM

## O=C(C1CCCCC1)N1CCN(c2nnc(-c3ccccc3)c3ccccc23)CC1
  IC50: > 50 µM (inactive)
[1]
  IC50: 50 µM
[2]
  IC50: 20 µM

## O=C(COc1ccccc1)Nc1ccccc1C(=O)Nc1nccs1
  IC50: > 50 µM (inactive)
[1]
  IC50: 7.9 µM
[2]
  IC50: > 50 µM

## COc1ccc(C(=O)Nc2ccc(NC(=O)CO)cc2)cc1
  IC50: > 50 µM (inactive)
[1]
  IC50: 20 µM
[2]
  IC50: > 50 µM

## c1cncc(CN(Cc2ccco2)Cc2cn[nH]c2-c2cccs2)c1
  IC50: > 50 µM (inactive)
[1]
  IC50: 20 µM
[2]
  IC50: 1.3 µM

## CC(C)(C)Nc1nc(-c2ccccn2)nc2ccccc12
  IC50: 1.6 µM
[1]
  IC50: 16 µM
[2]
  IC50: 1.3 µM

## Cc1nc2c(-c3cccs3)c(C)nn2c(NCCO)c1C
  IC50: > 50 µM (inactive)
[1]
  IC50: > 50 µM
[2]
  IC50: > 50 µM

## O=C(CSc1nnc2ccc(-c3ccc(F)cc3)nn12)N1CCCCC1
  IC50: > 50 µM (inactive)
[1]
  IC50: 6.3 µM
[2]
  IC50: > 50 µM

## CCN(CC)S(=O)(=O)c1ccc(C(=O)Nc2cc(C)nn2-c2nc(C)c(C)c(=O)[nH]2)cc1
  IC50: > 50 µM (inactive)
[1]
  IC50: 3.2 µM
[2]
  IC50: > 50 µM

## COc1ccc(C(C)N(C)c2ncc3c(N)nc(N)nc3n2)cc1F (configuration not stated)
  IC50: 16 µM
[1]
  IC50: > 50 µM
[2]
  IC50: 13 µM

## Nc1nc(-c2ccccn2)nc(-n2nc(-c3cccc(C(F)(F)F)c3)cc2N)n1
  IC50: 0.79 µM
[1]
  IC50: 5 µM
[2]
  IC50: 0.5 µM

## CCCN1CCN(Cc2ccc(S(=O)(=O)Nc3cccc(C)c3)cc2)CC1
  IC50: > 50 µM (inactive)
[1]
  IC50: > 50 µM
[2]
  IC50: > 50 µM

## COc1cccc(NS(=O)(=O)c2ccc3[nH]cc(C(=O)NCCC(C)C)c(=O)c3c2)c1
  IC50: > 50 µM (inactive)
[1]
  IC50: > 50 µM
[2]
  IC50: > 50 µM

## CN(Cc1cccnc1)Cc1ccc(N2CCN(C(=O)C3(c4ccc(Cl)cc4)CC3)CC2)nc1
  IC50: > 50 µM (inactive)
[1]
  IC50: 10 µM
[2]
  IC50: > 50 µM

## N#Cc1ccccc1S(=O)(=O)N1CCN(C(=O)CNC(=O)c2ccc3c(c2)OCO3)CC1
  IC50: 5 µM
[1]
  IC50: > 50 µM
[2]
  IC50: 1.6 µM

## COc1cc2c(cc1OC)[C@H]1[C@@H](C)c3ccc(OC)c(OC)c3CN1CC2
  IC50: 20 µM
[1]
  IC50: > 50 µM
[2]
  IC50: 16 µM

## Cc1nc2c(-c3nc(-c4ccc(N)cc4)n[nH]3)cccn2c1C
  IC50: 2 µM
[1]
  IC50: 13 µM
[2]
  IC50: 1.6 µM

## CC(C)CC(=O)NC(c1cccs1)c1ccc2cccnc2c1O (configuration not stated)
  IC50: 7.9 µM
[1]
  IC50: 1.6 µM
[2]
  IC50: 3.2 µM

## O=S(=O)(NCC(c1cccnc1)N1CCN(c2ccccc2F)CC1)c1ccc(F)cc1 (configuration not stated)
  IC50: > 50 µM (inactive)
[1]
  IC50: > 50 µM
[2]
  IC50: 4 µM

## COc1ccc(C(=O)Nc2cc(C(F)(F)F)ccc2N2CCOCC2)c(OC)c1
  IC50: 10 µM
[1]
  IC50: 13 µM
[2]
  IC50: 7.9 µM

## CS(=O)(=O)c1cccc(-c2cnc(N)c3c(-c4ccc(CO)cc4)csc23)c1
  IC50: 10 µM
[1]
  IC50: > 50 µM
[2]
  IC50: 7.9 µM

## Cc1ccc(NC(=O)c2ccc(Cl)c(NC(=O)c3ccc([N+](=O)[O-])cc3)c2)cc1
  IC50: > 50 µM (inactive)
[1]
  IC50: > 50 µM
[2]
  IC50: > 50 µM

## O=C(Nc1ccc(C(F)(F)F)cc1)Nc1cccc([N+](=O)[O-])c1
  IC50: 2.5 µM
[1]
  IC50: 6.3 µM
[2]
  IC50: 2 µM

## CCC(=O)Nc1ccc(-c2nc3ccc(Cl)cc3[nH]2)cc1
  IC50: > 50 µM (inactive)
[1]
  IC50: > 50 µM
[2]
  IC50: > 50 µM

## CC(c1ccccn1)N(C)Cc1nc2ccccc2n1C(C)C (configuration not stated)
  IC50: 3.2 µM
[1]
  IC50: 16 µM
[2]
  IC50: 2 µM

## O=C(COc1ncnc2cc([N+](=O)[O-])ccc12)NC(=O)NC1CCCCC1
  IC50: > 50 µM (inactive)
[1]
  IC50: > 50 µM
[2]
  IC50: > 50 µM

## COc1ccc([N+](=O)[O-])cc1NC(=O)c1cc(Cl)ccc1O
  IC50: 2 µM
[1]
  IC50: 10 µM
[2]
  IC50: 1.6 µM

## CCC(c1ccc(F)cc1)n1cncc1-c1cnn(C)c1 (configuration not stated)
  IC50: > 50 µM (inactive)
[1]
  IC50: > 50 µM
[2]
  IC50: > 50 µM

## CC(Cn1ccnc1)NC(=O)COc1ccc(Cl)c(Cl)c1 (configuration not stated)
  IC50: > 50 µM (inactive)
[1]
  IC50: > 50 µM
[2]
  IC50: > 50 µM

## CNc1cc(C)nc(C2CN(C(=O)c3n[nH]c4ccccc34)CCO2)c1 (configuration not stated)
  IC50: > 50 µM (inactive)
[1]
  IC50: > 50 µM
[2]
  IC50: > 50 µM

## CN(C)c1ncc(-c2cncn2CCOc2ccc(Cl)cc2)cn1
  IC50: > 50 µM (inactive)
[1]
  IC50: > 50 µM
[2]
  IC50: > 50 µM

## COc1ccc(S(=O)(=O)Nc2ccc(C(=O)Nc3nc(-c4ccccn4)cs3)cc2)cc1
  IC50: 0.4 µM
[1]
  IC50: 10 µM
[2]
  IC50: 0.16 µM

## CN(Cc1ccc(C(N)=O)cc1)C(c1ccc(F)cc1)c1cccnc1 (configuration not stated)
  IC50: > 50 µM (inactive)
[1]
  IC50: > 50 µM
[2]
  IC50: > 50 µM

## COc1ncc(-c2ccc3ncnc(N4CCOCC4)c3c2)cc1NS(C)(=O)=O
  IC50: 5 µM
[1]
  IC50: 1 µM
[2]
  IC50: 0.63 µM

## Cc1c(Nc2cc(C3CC3)[nH]n2)ccc(C#N)c1Cl
  IC50: 40 µM
[1]
  IC50: 25 µM
[2]
  IC50: 25 µM

## CCCC(=O)N(Cc1ccccn1)c1nc2ccccc2s1
  IC50: > 50 µM (inactive)
[1]
  IC50: > 50 µM
[2]
  IC50: 10 µM

## CCN(CC)S(=O)(=O)c1ccc(Cn2nc(C(=O)Nc3ccncn3)c3ccccc32)cc1
  IC50: > 50 µM (inactive)
[1]
  IC50: > 50 µM
[2]
  IC50: > 50 µM

## Cc1ccccc1NS(=O)(=O)c1ccc2[nH]cc(C(=O)NC3CCCCC3)c(=O)c2c1
  IC50: 40 µM
[1]
  IC50: 32 µM
[2]
  IC50: 40 µM

## Oc1c(-c2n[nH]c(Cc3ccc(F)cc3)n2)ncc2cccnc12
  IC50: 1 µM
[1]
  IC50: 20 µM
[2]
  IC50: 1 µM

## O=C(NCC(c1cccs1)N1CCOCC1)c1ccc([N+](=O)[O-])o1 (configuration not stated)
  IC50: 25 µM
[1]
  IC50: 25 µM
[2]
  IC50: 16 µM

## O=C(NCCCn1cnc2ccccc21)c1ccc(NC(=O)c2ccco2)cc1
  IC50: > 50 µM (inactive)
[1]
  IC50: > 50 µM
[2]
  IC50: 13 µM

## CCOc1ccc(Nc2ccc(S(=O)(=O)N3CCN(C)CC3)cc2[N+](=O)[O-])cc1OCC
  IC50: 7.9 µM
[1]
  IC50: 13 µM
[2]
  IC50: 5 µM

## N#Cc1cccc(Cc2cc(Nc3cc(C4CC4)[nH]n3)nc(N3CC[C@H]3C(N)=O)n2)c1
  IC50: 0.2 µM
[1]
  IC50: 0.032 µM
[2]
  IC50: 0.079 µM

## O=c1cc(NCCCNC2CCOc3c(I)cc(Cl)cc32)[nH]c2ccccc12 (configuration not stated)
  IC50: 20 µM
[1]
  IC50: 20 µM
[2]
  IC50: 13 µM

## CN(C)CCOc1ccc(N2CCN(S(=O)(=O)c3ccc(Cl)cc3)CC2)cc1
  IC50: 32 µM
[1]
  IC50: > 50 µM
[2]
  IC50: 32 µM

## COc1ccc(C2C3CCCCC3(O)CCN2CC(=O)Nc2ccc(Cl)cc2Cl)cc1 (configuration not stated)
  IC50: 2.5 µM
[1]
  IC50: > 50 µM
[2]
  IC50: 0.79 µM

## Cn1nccc1-c1cc(OC(CN)c2ccccc2)cnc1-c1ccco1 (configuration not stated)
  IC50: > 50 µM (inactive)
[1]
  IC50: 16 µM
[2]
  IC50: 32 µM

## N#Cc1ccc(Br)cc1[N+](=O)[O-]
  IC50: 20 µM
[1]
  IC50: 25 µM
[2]
  IC50: 13 µM

## N#Cc1cnc(Nc2cccc(CCN3CCOCC3)c2)nc1Nc1ccccc1C(N)=O
  IC50: 1.6 µM
[1]
  IC50: 0.79 µM
[2]
  IC50: 1 µM

## c1ccc(-c2nc(NCc3ccco3)c3ccccc3n2)nc1
  IC50: 2.5 µM
[1]
  IC50: 32 µM
[2]
  IC50: 2.5 µM

## O=C(NCC1CCCCN1C(=O)c1cccc2ccccc12)c1ccccc1 (configuration not stated)
  IC50: > 50 µM (inactive)
[1]
  IC50: > 50 µM
[2]
  IC50: > 50 µM

## NC(=O)c1cc(F)ccc1Nc1nc(NC2CCC(O)CC2)ncc1Cl (configuration not stated)
  IC50: 1.3 µM
[1]
  IC50: 0.63 µM
[2]
  IC50: 0.79 µM

## O=C(c1cccc(Cl)c1Cl)N1CCn2c1nc(-c1ccncc1)cc2=O
  IC50: > 50 µM (inactive)
[1]
  IC50: > 50 µM
[2]
  IC50: 32 µM

## c1ccc(CNc2cccc3ccncc23)cc1
  IC50: 7.9 µM
[1]
  IC50: 50 µM
[2]
  IC50: 5 µM

## Cc1[nH]n2c(=O)c3c(nc2c1-c1ccc(F)cc1)CCCC3
  IC50: > 50 µM (inactive)
[1]
  IC50: > 50 µM
[2]
  IC50: > 50 µM

## CC(=O)Nc1cccc(Nc2ncnc3nc[nH]c23)c1
  IC50: > 50 µM (inactive)
[1]
  IC50: 10 µM
[2]
  IC50: 40 µM

## NCc1ccc2c(Cl)cc(Cl)c(O)c2n1
  IC50: 2 µM
[1]
  IC50: 20 µM
[2]
  IC50: 2 µM

## Cc1[nH]nc(Nc2ccnc3[nH]ccc23)c1C
  IC50: > 50 µM (inactive)
[1]
  IC50: > 50 µM
[2]
  IC50: > 50 µM

Source: PubChem BioAssay AID1159564 (GlaxoSmithKline (GSK), 2015)
